From article PMC13095444, “Discovery of RGS2-FBXO44 interaction inhibitors using a cell-based NanoBit assay” (Molecular Pharmacology, 2025)

System: RGS2 protein levels
Test: PathHunter ProLabel assay of RGS2 protein levels in HEK-293T-RGS2-PL cells
Format: cell-based, Human
Conditions: for RGS2 protein levels (PathHunter ProLabel): 100 μM compound overnight (16–18 hours)
Procedure: The PathHunter ProLabel assay was run as described previously ([Sjögren et al, 2012]; [Raveh et al, 2014]; [Sjögren et al, 2015]). Briefly, HEK-293T-RGS2-PL cells were plated at 10,000 cells per well in a white, tissue culture-treated 384-well plate (Perkin Elmer) in DMEM without phenol red (#21063; Gibco) and 0.1% BSA. The cells were allowed to attach for 4 hours, followed by treatment with DMSO, 10 μM MG-132, or 100 μM of compounds. Prior to the detection of RGS2 protein levels by the ProLabel assay, a fluorescent viability assay was performed in the same well, as described above. PathHunter ProLabel reagents (DiscoveRx) were prepared according to the manufacturer’s directions and added to the plate, followed by incubation at room temperature for 1 hour. Luminescence corresponding to RGS2-PL protein levels was detected using a Synergy Neo2 multimode plate reader.
Compounds that inhibit the interaction between RGS2 and FBXO44 would protect RGS2 from proteasomal degradation and result in increased RGS2 protein levels. We therefore next assayed our 20 hits for their ability to increase RGS2 protein levels. We first performed western blot analysis of HEK-293T cells transfected with RGS2-HA and FLAG-FBXO44 and treated overnight (16–18 hours) with 100 μM compound, using proteasome inhibitor MG-132 as a positive control (10 μM). […] Although somewhat disappointing, given the limited sensitivity of western blot, we opted to also test the compounds using an alternate assay paradigm. Specifically, we used the PathHunter ProLabel assay (DiscoveRx), an enzyme complementation assay in which a protein of interest is tagged with a 4 kDa part of β-galactosidase (ProLabel; PL). The chemiluminescent signal in the assay correlates with relative levels of the PL-tagged target protein. We previously developed a stable HEK-293T-RGS2-PL cell line that was used in several high-throughput screening campaigns ([Sjögren et al, 2012]; [Raveh et al, 2014]; [Sjögren et al, 2015]). The PathHunter ProLabel assay offers a more quantitative measurement of protein levels, with a larger dynamic range than a western blot. We treated HEK-293T-RGS2-PL cells overnight (16–18 hours) with 100 μM compound and used 10 μM MG-132 as a positive control.
As a further validation of the action of compound 10, we assessed whether the ability to increase RGS2 protein levels was dependent on FBXO44 using the PathHunter ProLabel assay. HEK-293T-RGS2-PL cells transfected with either nontargeting (NT) or FBXO44-targeting siRNA were treated overnight (16–18 hours) with vehicle or compound 10 (100 μM). […] Thus, compound 10 increases RGS2 protein levels through a mechanism that is dependent on FBXO44.

CCC1CCCCN1S(=O)(=O)c1cc(Br)ccc1OC (stereo not drawn) [Compound 10]
RGS2 protein levels (PathHunter ProLabel): significantly increased RGS2 protein levels
RGS2 protein levels (PathHunter ProLabel) (listed as compound 10): significantly increased
Ability to increase RGS2 protein levels after siRNA-mediated FBXO44 knockdown (PathHunter ProLabel) (100 μM overnight, FBXO44-targeting vs nontargeting siRNA): diminished ability
